Each block holds one molecule with its values, some of them ahead of it. Where a SMILES comes first, the peptide text is derived from it. Bridges are numbered along the chain shown (N, C = ends). Where no end group is shown, it is not given here. The star is where a group is joined. FITC = O=C1OC2(c3ccc(O)cc3Oc3cc(O)ccc32)c2ccc(NC(=S)*)cc21; GABA = NCCCC(=O)O
Assays:
[1] = test system: B16F10 mouse melanoma cells; experiment: Immunofluorescence microscopy of cell binding and uptake; assay type: cell-based; details: 10 μM ALOS4-FITC, 37°C, confocal microscopy
Procedure: Poly-L-lysine (1 h, 37°C; cat# P8920, Sigma-Aldrich) coated slides (cat# PEZGS0816, Merck) were washed 2x with PBS (pH 7.4), 1.5×10^4 B16F10 cells per well were seeded in RPMI (10% FCS) and allowed to incubate overnight (37°C, 5% CO2). ALOS4-FITC (10 μM) was added to slide wells up to 60 min (37°C, 5% CO2), then cells were fixed in paraformaldehyde (4%, 10 min). Following PBS washes (2x) and removal of excess buffer, cells were stained with a mounting medium containing DAPI (cat# H-1500, Vector Laboratories, Burlingame, CA). Slides were imaged by confocal microscopy.

[2] = Weight of non-inoculated mice under daily treatment; assay type: in vivo, mouse; details: 16-week old C57BL/6, 0.3 mg/kg i.p. daily for 28 days; data not shown
integrin αvβ3 [3] = target: T1, integrin αvβ3 (Homo sapiens, UniProt P06756); experiment: fluorescence plate saturation binding assay
T1 chain 1: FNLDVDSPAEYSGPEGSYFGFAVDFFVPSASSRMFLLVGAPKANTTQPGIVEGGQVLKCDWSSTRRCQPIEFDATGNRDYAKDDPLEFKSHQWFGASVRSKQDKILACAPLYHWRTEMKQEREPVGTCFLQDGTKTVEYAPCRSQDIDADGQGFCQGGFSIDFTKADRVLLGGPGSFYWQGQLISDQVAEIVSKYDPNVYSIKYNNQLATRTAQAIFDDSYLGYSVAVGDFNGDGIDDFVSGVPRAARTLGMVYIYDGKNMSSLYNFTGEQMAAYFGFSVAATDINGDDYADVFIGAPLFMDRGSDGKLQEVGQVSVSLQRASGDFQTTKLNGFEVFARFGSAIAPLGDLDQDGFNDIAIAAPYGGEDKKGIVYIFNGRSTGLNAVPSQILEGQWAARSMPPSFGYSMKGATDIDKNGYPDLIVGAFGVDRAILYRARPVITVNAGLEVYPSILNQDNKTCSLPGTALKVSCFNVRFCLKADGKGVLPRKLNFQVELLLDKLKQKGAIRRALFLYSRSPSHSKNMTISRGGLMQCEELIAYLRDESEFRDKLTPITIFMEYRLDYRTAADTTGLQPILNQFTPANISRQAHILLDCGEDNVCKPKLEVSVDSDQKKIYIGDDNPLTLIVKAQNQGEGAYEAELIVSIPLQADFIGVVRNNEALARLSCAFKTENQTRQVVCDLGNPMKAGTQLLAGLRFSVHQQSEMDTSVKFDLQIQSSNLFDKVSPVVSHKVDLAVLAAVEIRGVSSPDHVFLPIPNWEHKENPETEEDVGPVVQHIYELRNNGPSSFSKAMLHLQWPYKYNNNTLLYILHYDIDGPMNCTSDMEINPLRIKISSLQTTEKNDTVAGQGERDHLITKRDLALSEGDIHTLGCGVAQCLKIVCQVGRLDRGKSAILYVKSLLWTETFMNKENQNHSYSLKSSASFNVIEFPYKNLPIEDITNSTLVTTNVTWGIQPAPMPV
T1 chain 2: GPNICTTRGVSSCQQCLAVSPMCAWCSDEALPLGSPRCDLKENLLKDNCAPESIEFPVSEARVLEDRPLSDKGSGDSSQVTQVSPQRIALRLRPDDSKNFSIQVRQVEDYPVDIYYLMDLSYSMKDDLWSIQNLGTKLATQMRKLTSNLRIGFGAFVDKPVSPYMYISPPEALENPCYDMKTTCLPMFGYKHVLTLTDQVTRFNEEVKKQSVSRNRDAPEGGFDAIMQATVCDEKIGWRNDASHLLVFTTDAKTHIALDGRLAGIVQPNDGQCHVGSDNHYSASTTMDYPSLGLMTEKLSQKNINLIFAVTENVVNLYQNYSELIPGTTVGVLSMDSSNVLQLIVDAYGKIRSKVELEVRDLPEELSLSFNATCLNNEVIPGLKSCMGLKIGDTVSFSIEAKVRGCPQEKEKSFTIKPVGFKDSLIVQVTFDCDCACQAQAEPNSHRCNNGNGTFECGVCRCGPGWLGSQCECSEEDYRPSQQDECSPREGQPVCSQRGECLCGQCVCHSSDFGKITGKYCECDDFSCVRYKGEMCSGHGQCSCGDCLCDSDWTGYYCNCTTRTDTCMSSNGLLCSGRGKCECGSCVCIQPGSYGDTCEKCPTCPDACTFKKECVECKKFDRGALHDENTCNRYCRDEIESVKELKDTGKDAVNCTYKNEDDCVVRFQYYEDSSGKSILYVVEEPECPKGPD

integrin αvβ3 [4] = target: T1, integrin αvβ3; experiment: fluorescence competition binding assay with ALOS4-FITC

Molecule: CC(C)C[C@@H]1NC(=O)[C@H](CO)NC(=O)CNC(=O)[C@H](C)NC(=O)[C@H](CO)NC(=O)[C@H](CO)NC(=O)[C@@H](NC(=O)CCCNC(=S)Nc2ccc3c(c2)C(=O)OC32c3ccc(O)cc3Oc3cc(O)ccc32)CSSC[C@@H](C(=O)O)NC(=O)[C@H](Cc2ccccc2)NC1=O [ALOS4-FITC] ({FITC-GABA}-CSSAGSLFC-OH; disulfide 1-9)
association with cells, 10 min ([1]; 10 min): rapidly adheres to the cell surface
translocation into cells, 30 min ([1]; 30 min): appears to translocate quickly to the cell cytoplasm
intracellular localization, 60 min ([1]; up to 60 min): a majority of ALOS4-FITC migrated to the nuclear envelope and/or surrounding endoplasmic reticular membranes

effect on animal weight, non-inoculated mice [2]: did not have any effect on animal weight
Molecule: CC(C)C[C@@H]1NC(=O)[C@H](CO)NC(=O)CNC(=O)[C@H](C)NC(=O)[C@H](CO)NC(=O)[C@H](CO)NC(=O)[C@@H](N)CSSC[C@@H](C(=O)O)NC(=O)[C@H](Cc2ccccc2)NC1=O [ALOS4] (H-CSSAGSLFC-OH; disulfide 1-9)

Kd (integrin αvβ3 [3]): 192 nM
B1: ALOS4-FITC (peptide)
chain: {FITC-ε‑Acp}-CSSAGSLFC
modifications: disulfide 1-9 (inferred)

Kd (integrin αvβ3 [4]): 2550 nM
B2: ALOS4 (peptide)
chain: CSSAGSLFC
modifications: disulfide 1-9 (inferred)

Source: article PMC5325384, “Novel synthetic cyclic integrin αvβ3 binding peptide ALOS4: antitumor activity in mouse melanoma models” (Oncotarget, 2016)
